# Test results as given in patent US8192962B2, “Processes for detecting toxic substances” (Daikin Industries, Ltd., priority 2001, dated 2012).
# Tested on: Stress protein genes
# Experiment: DNA chip mRNA expression in yeast, stress protein genes (Table 6)
# Format: cell-based, Saccharomyces cerevisiae S288C
# In short: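 Values are treated/untreated fluorescence ratios from a whole-genome yeast DNA chip hybridized over 12 hours at 65° C with Cy3- or Cy5-labelled cDNA from poly(A) mRNA. Log-phase S288C yeast in YPD at 25° C had received a single toxic chemical for two hours, dosed to slow growth without killing.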
smiles,measurement,setting,value
"C=CC=O [(14), acrolein]",The level of expressed mRNA in the presence of chemical substance/The level of expressed mRNA in the absence of chemical substance,yeast gene YAL005C,0.4
same,The level of expressed mRNA in the presence of chemical substance/The level of expressed mRNA in the absence of chemical substance,yeast gene YAL015C,1.6
same,The level of expressed mRNA in the presence of chemical substance/The level of expressed mRNA in the absence of chemical substance,yeast gene YBL075C,1.1
same,The level of expressed mRNA in the presence of chemical substance/The level of expressed mRNA in the absence of chemical substance,yeast gene YBL093C,1.0
same,The level of expressed mRNA in the presence of chemical substance/The level of expressed mRNA in the absence of chemical substance,yeast gene YBR044C,0.9
same,The level of expressed mRNA in the presence of chemical substance/The level of expressed mRNA in the absence of chemical substance,yeast gene YBR054W,1.0
same,The level of expressed mRNA in the presence of chemical substance/The level of expressed mRNA in the absence of chemical substance,yeast gene YBR067C,0.7
same,The level of expressed mRNA in the presence of chemical substance/The level of expressed mRNA in the absence of chemical substance,yeast gene YBR072W,5.8
same,The level of expressed mRNA in the presence of chemical substance/The level of expressed mRNA in the absence of chemical substance,yeast gene YBR126C,0.7
same,The level of expressed mRNA in the presence of chemical substance/The level of expressed mRNA in the absence of chemical substance,yeast gene YBR169C,1.1
same,The level of expressed mRNA in the presence of chemical substance/The level of expressed mRNA in the absence of chemical substance,yeast gene YCL035C,2.5
same,The level of expressed mRNA in the presence of chemical substance/The level of expressed mRNA in the absence of chemical substance,yeast gene YCR021C,1.6
same,The level of expressed mRNA in the presence of chemical substance/The level of expressed mRNA in the absence of chemical substance,yeast gene YCR060W,1.7
same,The level of expressed mRNA in the presence of chemical substance/The level of expressed mRNA in the absence of chemical substance,yeast gene YCR083W,2.4
same,The level of expressed mRNA in the presence of chemical substance/The level of expressed mRNA in the absence of chemical substance,yeast gene YDL022W,0.8
same,The level of expressed mRNA in the presence of chemical substance/The level of expressed mRNA in the absence of chemical substance,yeast gene YDL025C,1.7
same,The level of expressed mRNA in the presence of chemical substance/The level of expressed mRNA in the absence of chemical substance,yeast gene YDR033W,1.0
same,The level of expressed mRNA in the presence of chemical substance/The level of expressed mRNA in the absence of chemical substance,yeast gene YDR077W,0.3
same,The level of expressed mRNA in the presence of chemical substance/The level of expressed mRNA in the absence of chemical substance,yeast gene YDR098C,1.5
same,The level of expressed mRNA in the presence of chemical substance/The level of expressed mRNA in the absence of chemical substance,yeast gene YDR155C,1.0
same,The level of expressed mRNA in the presence of chemical substance/The level of expressed mRNA in the absence of chemical substance,yeast gene YDR258C,1.5
same,The level of expressed mRNA in the presence of chemical substance/The level of expressed mRNA in the absence of chemical substance,yeast gene YDR293C,0.8
same,The level of expressed mRNA in the presence of chemical substance/The level of expressed mRNA in the absence of chemical substance,yeast gene YDR436W,1.2
same,The level of expressed mRNA in the presence of chemical substance/The level of expressed mRNA in the absence of chemical substance,yeast gene YDR513W,2.0
same,The level of expressed mRNA in the presence of chemical substance/The level of expressed mRNA in the absence of chemical substance,yeast gene YDR519W,1.3
same,The level of expressed mRNA in the presence of chemical substance/The level of expressed mRNA in the absence of chemical substance,yeast gene YEL030W,0.7
same,The level of expressed mRNA in the presence of chemical substance/The level of expressed mRNA in the absence of chemical substance,yeast gene YEL039C,1.4
same,The level of expressed mRNA in the presence of chemical substance/The level of expressed mRNA in the absence of chemical substance,yeast gene YER042W,5.2
same,The level of expressed mRNA in the presence of chemical substance/The level of expressed mRNA in the absence of chemical substance,yeast gene YER057C,1.4
same,The level of expressed mRNA in the presence of chemical substance/The level of expressed mRNA in the absence of chemical substance,yeast gene YER103W,0.9
same,The level of expressed mRNA in the presence of chemical substance/The level of expressed mRNA in the absence of chemical substance,yeast gene YER125W,0.7
same,The level of expressed mRNA in the presence of chemical substance/The level of expressed mRNA in the absence of chemical substance,yeast gene YFL014W,7.3
same,The level of expressed mRNA in the presence of chemical substance/The level of expressed mRNA in the absence of chemical substance,yeast gene YFL016C,0.8
same,The level of expressed mRNA in the presence of chemical substance/The level of expressed mRNA in the absence of chemical substance,yeast gene YFL020C,1.0
same,The level of expressed mRNA in the presence of chemical substance/The level of expressed mRNA in the absence of chemical substance,yeast gene YFR052W,3.3
same,The level of expressed mRNA in the presence of chemical substance/The level of expressed mRNA in the absence of chemical substance,yeast gene YGL073W,1.2
same,The level of expressed mRNA in the presence of chemical substance/The level of expressed mRNA in the absence of chemical substance,yeast gene YGL115W,1.2
same,The level of expressed mRNA in the presence of chemical substance/The level of expressed mRNA in the absence of chemical substance,yeast gene YGL181W,1.0
same,The level of expressed mRNA in the presence of chemical substance/The level of expressed mRNA in the absence of chemical substance,yeast gene YGR088W,1.3
same,The level of expressed mRNA in the presence of chemical substance/The level of expressed mRNA in the absence of chemical substance,yeast gene YHL028W,1.3
same,The level of expressed mRNA in the presence of chemical substance/The level of expressed mRNA in the absence of chemical substance,yeast gene YHL046C,1.4
same,The level of expressed mRNA in the presence of chemical substance/The level of expressed mRNA in the absence of chemical substance,yeast gene YHR030C,1.1
same,The level of expressed mRNA in the presence of chemical substance/The level of expressed mRNA in the absence of chemical substance,yeast gene YHR057C,1.9
same,The level of expressed mRNA in the presence of chemical substance/The level of expressed mRNA in the absence of chemical substance,yeast gene YHR104W,1.5
same,The level of expressed mRNA in the presence of chemical substance/The level of expressed mRNA in the absence of chemical substance,yeast gene YIL011W,0.5
same,The level of expressed mRNA in the presence of chemical substance/The level of expressed mRNA in the absence of chemical substance,yeast gene YIL033C,0.7
same,The level of expressed mRNA in the presence of chemical substance/The level of expressed mRNA in the absence of chemical substance,yeast gene YIR037W,2.3
same,The level of expressed mRNA in the presence of chemical substance/The level of expressed mRNA in the absence of chemical substance,yeast gene YIR038C,2.5
same,The level of expressed mRNA in the presence of chemical substance/The level of expressed mRNA in the absence of chemical substance,yeast gene YJL128C,0.8
same,The level of expressed mRNA in the presence of chemical substance/The level of expressed mRNA in the absence of chemical substance,yeast gene YJL158C,0.5
same,The level of expressed mRNA in the presence of chemical substance/The level of expressed mRNA in the absence of chemical substance,yeast gene YJL159W,0.6
same,The level of expressed mRNA in the presence of chemical substance/The level of expressed mRNA in the absence of chemical substance,yeast gene YJL165C,0.9
same,The level of expressed mRNA in the presence of chemical substance/The level of expressed mRNA in the absence of chemical substance,yeast gene YJR045C,0.5
same,The level of expressed mRNA in the presence of chemical substance/The level of expressed mRNA in the absence of chemical substance,yeast gene YJR090C,1.0
same,The level of expressed mRNA in the presence of chemical substance/The level of expressed mRNA in the absence of chemical substance,yeast gene YKL161C,1.4
same,The level of expressed mRNA in the presence of chemical substance/The level of expressed mRNA in the absence of chemical substance,yeast gene YKL163W,0.5
same,The level of expressed mRNA in the presence of chemical substance/The level of expressed mRNA in the absence of chemical substance,yeast gene YKL164C,0.3
same,The level of expressed mRNA in the presence of chemical substance/The level of expressed mRNA in the absence of chemical substance,yeast gene YKL210W,0.8
same,The level of expressed mRNA in the presence of chemical substance/The level of expressed mRNA in the absence of chemical substance,yeast gene YKR053C,1.3
same,The level of expressed mRNA in the presence of chemical substance/The level of expressed mRNA in the absence of chemical substance,yeast gene YLL024C,0.4
same,The level of expressed mRNA in the presence of chemical substance/The level of expressed mRNA in the absence of chemical substance,yeast gene YLL026W,0.8
same,The level of expressed mRNA in the presence of chemical substance/The level of expressed mRNA in the absence of chemical substance,yeast gene YLL039C,1.4
same,The level of expressed mRNA in the presence of chemical substance/The level of expressed mRNA in the absence of chemical substance,yeast gene YLL060C,10.6
same,The level of expressed mRNA in the presence of chemical substance/The level of expressed mRNA in the absence of chemical substance,yeast gene YLR006C,1.0
same,The level of expressed mRNA in the presence of chemical substance/The level of expressed mRNA in the absence of chemical substance,yeast gene YLR109W,2.3
same,The level of expressed mRNA in the presence of chemical substance/The level of expressed mRNA in the absence of chemical substance,yeast gene YLR259C,0.8
same,The level of expressed mRNA in the presence of chemical substance/The level of expressed mRNA in the absence of chemical substance,yeast gene YML007W,1.2
same,The level of expressed mRNA in the presence of chemical substance/The level of expressed mRNA in the absence of chemical substance,yeast gene YML070W,1.3
same,The level of expressed mRNA in the presence of chemical substance/The level of expressed mRNA in the absence of chemical substance,yeast gene YMR021C,1.3
same,The level of expressed mRNA in the presence of chemical substance/The level of expressed mRNA in the absence of chemical substance,yeast gene YMR173W,2.3
same,The level of expressed mRNA in the presence of chemical substance/The level of expressed mRNA in the absence of chemical substance,yeast gene YMR186W,0.6
same,The level of expressed mRNA in the presence of chemical substance/The level of expressed mRNA in the absence of chemical substance,yeast gene YNL064C,0.8
same,The level of expressed mRNA in the presence of chemical substance/The level of expressed mRNA in the absence of chemical substance,yeast gene YNL160W,1.3
same,The level of expressed mRNA in the presence of chemical substance/The level of expressed mRNA in the absence of chemical substance,yeast gene YNL241C,1.1
same,The level of expressed mRNA in the presence of chemical substance/The level of expressed mRNA in the absence of chemical substance,yeast gene YNR076W,0.8
same,The level of expressed mRNA in the presence of chemical substance/The level of expressed mRNA in the absence of chemical substance,yeast gene YOL064C,0.9
same,The level of expressed mRNA in the presence of chemical substance/The level of expressed mRNA in the absence of chemical substance,yeast gene YOL161C,0.9
same,The level of expressed mRNA in the presence of chemical substance/The level of expressed mRNA in the absence of chemical substance,yeast gene YOR008C,0.9
same,The level of expressed mRNA in the presence of chemical substance/The level of expressed mRNA in the absence of chemical substance,yeast gene YOR009W,0.7
same,The level of expressed mRNA in the presence of chemical substance/The level of expressed mRNA in the absence of chemical substance,yeast gene YOR010C,0.4
same,The level of expressed mRNA in the presence of chemical substance/The level of expressed mRNA in the absence of chemical substance,yeast gene YOR027W,0.8
same,The level of expressed mRNA in the presence of chemical substance/The level of expressed mRNA in the absence of chemical substance,yeast gene YOR208W,1.3
same,The level of expressed mRNA in the presence of chemical substance/The level of expressed mRNA in the absence of chemical substance,yeast gene YPL059W,1.3
same,The level of expressed mRNA in the presence of chemical substance/The level of expressed mRNA in the absence of chemical substance,yeast gene YPL106C,0.9
same,The level of expressed mRNA in the presence of chemical substance/The level of expressed mRNA in the absence of chemical substance,yeast gene YPL140C,1.1
same,The level of expressed mRNA in the presence of chemical substance/The level of expressed mRNA in the absence of chemical substance,yeast gene YPL194W,1.1
same,The level of expressed mRNA in the presence of chemical substance/The level of expressed mRNA in the absence of chemical substance,yeast gene YPL223C,2.5
same,The level of expressed mRNA in the presence of chemical substance/The level of expressed mRNA in the absence of chemical substance,yeast gene YPL240C,0.7
same,The level of expressed mRNA in the presence of chemical substance/The level of expressed mRNA in the absence of chemical substance,yeast gene YPR005C,1.3
same,The level of expressed mRNA in the presence of chemical substance/The level of expressed mRNA in the absence of chemical substance,yeast gene YPR026W,1.5
